# Test results as given in patent publication US10723726B2, “Solid forms of (Z)-4-(5-((3-benzyl-4-oxo-2-thioxothiazolidin-5-ylidene)methyl)furan-2-yl)benzoic acid” (GB006, INC., priority 2015, dated 2020).
# Counter-ions that a name gives are not always drawn. Like-named read-outs stand apart in the source and are kept apart here.
# Assays:
# [1] = Humidity stress at 40° C./75% RH; type: physicochemical; conditions: 5-6 days
# Procedure: The larger vials were capped, sealed with Parafilm and placed inside an oven at 40° C. for up to 6 days. Salts were then removed from these conditions and changes observed (e.g. color, deliquescence etc.) before being analyzed for weight change and by XRPD. Samples were examined visually after stressing, form composition confirmed by XRPD analysis and weight change recorded (Table 7).
# [2] = Aqueous solubility by equilibration, HPLC analysis; type: physicochemical
# Procedure: An aliquot of the UHQ water test solvent (1 mL) was added to an accurately weighed sample of the LA1 salts and agitated at ambient temperature for a period of 4 days. A sample was withdrawn, filtered through a […], and analyzed by HPLC. HPLC was used to determine aqueous equilibrium solubility at ambient temperature. […] Samples were slurried in water for 4-5 days before analysis.
# [3] = system: murine melanoma B16-F10 tumors; test: Murine melanoma B16F10 allograft efficacy (Example 19); type: in vivo, C57BL/6 mice; conditions: 3 or 30 mg/kg daily for 15 days
# Procedure: TUMOR CELLS. B16-F10 cells were cultured in DMEM cell culture medium supplemented with 10% FBS and 1% penicillin-streptomycin. The cells were maintained at 37° C. in […]. When the cells reached 75-80% confluence, they were harvested by trypsinization, washed, and counted. The cells were then re-suspended in serum free medium at a concentration of 0.1 million cells/75 μl.
# TUMOR CELL INOCULATION. Cells were inoculated subcutaneously on the flank of black mice. Prior to inoculation, hair was trimmed and skin on the injection site (dorsal right flank) was swabbed with alcohol. Cells in serum free medium (0.1 million cells/75 μl) were mixed with Matrigel at a ratio of 3:1 and a total volume of 100 μl was injected into each animal with a 1 mL BD syringe attached to a 26 G needle.
# RANDOMIZATION. Tumors were palpable around Day 7 of inoculation.
# STATISTICAL CALCULATIONS. All statistical calculations were performed using Prism 5.0 (GraphPad Software Inc., USA). Comparisons of tumor size measurements during and at the termination of the study were made between the treatment groups and respective vehicle control groups using One Way ANOVA followed by Dunnett's multiple comparison tests. A p-value of less than 0.05 was considered significant.
# [4] = Histopathology (Example 19); type: in vivo, C57BL/6 mice; conditions: also seen in one animal of the control group
# Procedure: HISTOPATHOLOGY. Histopathological examination was conducted using liver, kidney, lung, spleen, heart, and stomach samples.
# [5] = male, in vivo
# Procedure: (§1) In a second experiment, the dose solution was prepared in Tween-80 (0.02%) and 0.5% methyl cellulose in Milli-Q water. IP (2 mg/kg) and IV (1 mg/kg) dose solutions were prepared in a 5% DMSO and 95% PEG-200.
# (§2) The PO (2 mg/kg) dose solution was prepared in Tween-80 (0.02%) and 0.5% methyl cellulose in Milli-Q water. The IV (1 mg/kg) dose solution was prepared in a solution of 5% DMSO and 95% PEG-200.
# (§3) The routes of administration were namely PO (gavage), IP (bolus) and IV (bolus through tail vein). A total of four SD male rats were used aged between 5-6 weeks. The feeding regimen included 12 h fasting and the feed was provided 2 hrs after the dosage inoculation and water was provided ad libidum. The blood collection schedule for PO/IP was at 0.25, 0.5, 1, 2, 4, 8, 10 and 24 h, and for IV it was at 0.12, 0.25, 0.5, 1, 2, 4, 8 and 24 h. For PO dosage, tween-80 (0.02%) and 0.5% methyl cellulose prepared in milli-Q water were used as vehicles; for IP and IV dosage 5% DMSO and 95% PEG-200 were used as vehicles.
# (§4) Stock solution (178 μg/mL) in methanol was further diluted using methanol: water (80:20, v/v) to obtain working solutions in the range of 10.4 to 20745 ng/mL.
# (§5) 50 μL of sample was aliquoted in to pre-labeled vials. To it was added 200 μL of 10% tetrahydrofuran containing IS (100 ng/mL; tolbutamide) and mixed well, vortexed for 5 min followed by centrifugation for 5 min at 14000 rpm for at 4° C. Supernatant was separated and 5 μL of same was injected on LC-MS/MS.
# (§6) Data Analysis: Individual concentration-time data were analyzed using WinNonlin (Version 5.3) by non-compartmental analysis (NCA) method.
# (§7) The routes of administration were namely PO (gavage) and IV (bolus through tail vein). A total of four SD male rats were used aged between 5-6 weeks. The feeding regimen included 12 h fasting and the feed was provided 2 hrs after the dosage inoculation and water was provided ad libitum. The blood collection schedule for PO was at 0.25, 0.5, 1, 2, 4, 8, 10 and 24 h, and for IV it was at 0.12, 0.25, 0.5, 1, 2, 4, 8 and 24 h. For PO dosage, tween-80 (0.02%) and 0.5% methyl cellulose prepared in milli-Q water were used as vehicles; for IV dosage 10% DMSO and 90% PEG-200 were used as vehicles.
# [6] = in vivo; conditions: male, Sprague-Dawley, rat
# Procedure: as §1, §2, §3, §4, §5, §6, §7
# [7] = after slurrying in water 4-5 days
# [8] = Sprague-Dawley, rat, ip, 2 mg/kg
# [9] = Sprague-Dawley, rat, iv, 1 mg/kg
# [10] = Sprague-Dawley, rat, po, 2 mg/kg
smiles,measurement,setting,value
O=C(O)c1ccc(-c2ccc(/C=C3\SC(=S)N(Cc4ccccc4)C3=O)o2)cc1 [LA1 meglumine salt],Weight gain (%),[1],1.4%
same,XRPD after stressing,[1],No change
same,solubility,"[2]; UHQ water, thermodynamic from solid, water, ambient temperature, slurried 4-5 days, corrected for weight of counter-ion, read-out: Aq solub",724 µg/mL
same,Appearance,[2]; [7],No change
same,Soln pH,[2]; [7],8
same,HPLC purity (%),[2]; after slurrying in water 4-5 days (chemical stability),34.7%
same,growth inhibition of B16-F10 tumors as compared to vehicle control,[3],58-66%
same,microscopic examination of liver tissues,[4],minimal to moderate hepatocellular necrosis in one animal
same,tumor metastasis in lung tissue,[4],Tumor metastasis was observed in lung tissue from one animal
same,Rat Cl,"[5]; Sprague Dawley, iv, 1 mg/kg",17.5 mL/min/kg
same,Vss,"[5]; Sprague Dawley, rat",0.74 L/kg
same,Rat Cl,[5]; Sprague-Dawley,18 mL/min/kg
same,Rat F %,"[5]; Sprague-Dawley, ip, 2 mg/kg",167%
same,Rat Cl,"[5]; Sprague-Dawley, iv, 1 mg/kg",17.5 mL/min/kg
same,Rat F %,"[5]; Sprague-Dawley, po, 2 mg/kg",37.1%
same,% F (absolute IP bioavailability),"[5]; Sprague-Dawley, rat",> 100%
same,F (absolute oral bioavailability),"[5]; Sprague-Dawley, rat",37.1%
same,Vss,"[5]; Sprague-Dawley, rat",0.74 L/kg
same,AUC0-t,[5]; [8],3252 ng·h/mL
same,AUC0-∞,[5]; [8],3270 ng·h/mL
same,Tlast,[5]; [8],17.0 h
same,Tmax,[5]; [8],0.25 h
same,AUC0-t,[5]; [9],967 ng·h/mL
same,AUC0-∞,[5]; [9],978 ng·h/mL
same,C0,[5]; [9],2142 ng/mL
same,MRT,[5]; [9],0.91 h
same,Tlast,[5]; [9],8.00 h
same,Vd,[5]; [9],1.85 L/kg
same,AUC0-t,[5]; [10],722 ng·h/mL
same,AUC0-∞,[5]; [10],726 ng·h/mL
same,Tlast,[5]; [10],10.0 h
same,bioavailability,[6]; F (absolute oral bioavailability),37%
same,MRT,"[6]; po, 2 mg/kg, MRT",1.54 h
same,half-life,"[6]; po, 2 mg/kg, t1/2,ß",1.6 h
same,Tmax,"[6]; po, 2 mg/kg, tmax",0.5 h
